“And” between values parts separate entries of the source, which are not always exact repeats. Equal entries are not always repeated.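 Following 48 hours of exposure in 96-well plates, responses at five concentrations were used to interpolate endpoints linearly. The concentration for 50% growth inhibition is given as GI50. The concentration for full growth arrest is given as TGI.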
Key:
Assay in all cases: growth of human tumour cells (NCI), 48 h
786-0 renal = test system: 786-0 renal
A498 renal = test system: A498 renal
A549 NSCLC = test system: A549 NSCLC
ACHN renal = test system: ACHN renal
BT-549 breast = test system: BT-549 breast
CAKI-1 renal = test system: CAKI-1 renal
CCRF-CEM leukemia = test system: CCRF-CEM leukemia
COLO 205 colon = test system: COLO 205 colon
DU-145 prostate = test system: DU-145 prostate
EKVX NSCLC = test system: EKVX NSCLC
HCC-2998 colon = test system: HCC-2998 colon
HCT-116 colon = test system: HCT-116 colon
HCT-15 colon = test system: HCT-15 colon
HL-60(TB) leukemia = test system: HL-60(TB) leukemia
HOP-62 NSCLC = test system: HOP-62 NSCLC
HOP-92 NSCLC = test system: HOP-92 NSCLC
HS 578T breast = test system: HS 578T breast
HT29 colon = test system: HT29 colon
IGROV1 ovarian = test system: IGROV1 ovarian
K-562 leukemia = test system: K-562 leukemia
KM12 colon = test system: KM12 colon
LOX IMVI melanoma = test system: LOX IMVI melanoma
M14 melanoma = test system: M14 melanoma
MALME-3M melanoma = test system: MALME-3M melanoma
MCF7 breast = test system: MCF7 breast
MDA-MB-231 breast = test system: MDA-MB-231 breast
MDA-MB-435 = test system: MDA-MB-435
MOLT-4 leukemia = test system: MOLT-4 leukemia
NCI-H226 lung = test system: NCI-H226 lung

For `C[C@H](NC(=O)c1c(N)nn2cccnc12)c1cc2cccc(C#Cc3cnn(C)c3)c2c(=O)n1-c1ccccc1`, the GI50 (786-0 renal) was 3.97 µM and 3.56 µM, the TGI (786-0 renal) was > 10 µM and 16.9 µM and the GI50 (A498 renal) was 1.17 µM and 0.241 µM. For the same compound, the TGI (A498 renal) was 8.24 µM and 1.79 µM, the GI50 (A549 NSCLC) was 8.92 µM and 4.98 µM and the TGI (A549 NSCLC) was > 10 µM and 30.2 µM. For the same compound, the GI50 (ACHN renal) was 3.39 µM and 2.92 µM, the TGI (ACHN renal) was > 10 µM and 18.8 µM and the GI50 (BT-549 breast) was 1.6 µM and 1.42 µM. For the same compound, the TGI (BT-549 breast) was > 10 µM and 15.2 µM, the GI50 (CAKI-1 renal) was 3.81 µM and the TGI (CAKI-1 renal) was greater than 10 µM. For the same compound, the GI50 (CCRF-CEM leukemia) was 0.588 µM and 0.357 µM, the TGI (CCRF-CEM leukemia) was greater than 100 µM and the GI50 (COLO 205 colon) was 4.41 µM and 1.8 µM. The TGI (COLO 205 colon) was > 10 µM and 5.23 µM, the GI50 (DU-145 prostate) was 8.71 µM and 7.69 µM and the TGI (DU-145 prostate) was greater than 100 µM. For the same compound, the GI50 (EKVX NSCLC) was 9.84 µM and 4.67 µM, the TGI (EKVX NSCLC) was greater than 100 µM and the GI50 (HCC-2998 colon) was > 10 µM and 4.94 µM. For the same compound, the TGI (HCC-2998 colon) was > 10 µM and 19.9 µM, the GI50 (HCT-116 colon) was 2.61 µM and 6.65 µM and the TGI (HCT-116 colon) was > 10 µM and 33.9 µM. For the same compound, the GI50 (HCT-15 colon) was 2.69 µM and 4.68 µM, the TGI (HCT-15 colon) was > 10 µM and 26.4 µM and the GI50 (HL-60(TB) leukemia) was 0.774 µM and 0.813 µM. The TGI (HL-60(TB) leukemia) was > 10 µM and 9.86 µM, the GI50 (HOP-62 NSCLC) was 8.58 µM and the TGI (HOP-62 NSCLC) was greater than 10 µM. For the same compound, the GI50 (HOP-92 NSCLC) was 0.524 µM and 1.41 µM, the TGI (HOP-92 NSCLC) was 7.35 µM and 20.4 µM and the GI50 (HS 578T breast) was 1.83 µM and 1.26 µM. For the same compound, the TGI (HS 578T breast) was > 10 µM and 46.3 µM, the GI50 (HT29 colon) was 2.31 µM and 4 µM and the TGI (HT29 colon) was > 10 µM and 43.3 µM. For the same compound, the GI50 (IGROV1 ovarian) was 0.439 µM and 0.722 µM, the TGI (IGROV1 ovarian) was 2.89 µM and 5.47 µM and the GI50 (K-562 leukemia) was > 10 µM and 10.4 µM. The TGI (K-562 leukemia) was greater than 100 µM, the GI50 (KM12 colon) was 5.98 µM and 9.53 µM and the TGI (KM12 colon) was > 10 µM and 61.4 µM. The GI50 (LOX IMVI melanoma) was 3.44 µM, the TGI (LOX IMVI melanoma) was > 10 µM and 40 µM and the GI50 (M14 melanoma) was > 10 µM and 11.8 µM. The TGI (M14 melanoma) was > 10 µM and 30.9 µM, the TGI (MALME-3M melanoma) was > 10 µM and 20 µM and the GI50 (MCF7 breast) was 1.1 µM and 1.01 µM. For the same compound, the TGI (MCF7 breast) was > 10 µM and 87.7 µM, the GI50 (MDA-MB-231 breast) was 5.98 µM and 12.3 µM and the TGI (MDA-MB-231 breast) was > 10 µM and 54.1 µM. For the same compound, the GI50 (MDA-MB-435) was 5.87 µM and 5.57 µM, the TGI (MDA-MB-435) was > 10 µM and 60.8 µM and the GI50 (MOLT-4 leukemia) was 2.17 µM and 1.96 µM. The TGI (MOLT-4 leukemia) was > 10 µM and 6.55 µM, the GI50 (NCI-H226 lung) was > 10 µM and 11.8 µM and the TGI (NCI-H226 lung) was > 10 µM and 32.8 µM.
